# Like-named read-outs stand apart in the source and are kept apart here.
# What was measured:
# Assay in all cases: biochemical
# Design in all cases: Eurofins KinaseProfiler full panel at Km ATP, residual kinase activity (%) relative to DMSO
# Abl (Q252H) (h) = target: T1, Abl (Q252H) (h) (Homo sapiens, UniProt P00519, Q252H)
# T1 construct: gene ABL1
# Outline: (§1)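 Radiometric kinase activity assays were run with ATP at Km and compounds at 10 µM, and remaining activity (%) was reported. A separate competitive binding screen measured DNA-tagged kinase displaced from immobilized active-site ligands by qPCR, giving percent kinase still bound at 10 µM compound in DMSO.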
# CDK2/cyclinE(h) = CDK2/cyclinE(h) (Homo sapiens, UniProt P24941)
# Outline: as §1
# TBK1(h) = target: T2, TBK1(h) (Homo sapiens, UniProt Q9UHD2)
# T2 sequence (Q9UHD2 1-729): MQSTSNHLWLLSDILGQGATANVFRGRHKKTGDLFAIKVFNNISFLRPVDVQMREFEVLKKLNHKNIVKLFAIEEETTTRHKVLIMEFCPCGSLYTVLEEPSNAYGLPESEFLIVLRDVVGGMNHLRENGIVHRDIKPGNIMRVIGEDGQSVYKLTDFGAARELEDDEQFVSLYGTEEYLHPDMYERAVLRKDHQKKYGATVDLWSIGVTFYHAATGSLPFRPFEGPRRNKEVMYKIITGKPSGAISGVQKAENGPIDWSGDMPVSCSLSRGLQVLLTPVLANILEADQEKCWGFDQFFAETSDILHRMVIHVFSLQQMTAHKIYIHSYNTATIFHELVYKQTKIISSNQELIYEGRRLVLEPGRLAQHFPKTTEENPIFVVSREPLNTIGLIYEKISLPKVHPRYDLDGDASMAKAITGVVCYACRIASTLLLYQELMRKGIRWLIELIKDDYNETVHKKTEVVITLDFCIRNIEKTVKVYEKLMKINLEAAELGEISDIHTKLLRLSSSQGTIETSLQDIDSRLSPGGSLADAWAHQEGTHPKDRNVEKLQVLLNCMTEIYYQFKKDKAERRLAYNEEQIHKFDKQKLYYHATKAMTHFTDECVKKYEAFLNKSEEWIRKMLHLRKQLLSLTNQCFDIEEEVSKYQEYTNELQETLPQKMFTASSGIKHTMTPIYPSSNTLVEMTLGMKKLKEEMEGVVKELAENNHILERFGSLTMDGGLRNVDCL
# Outline: as §1
# PKCε(h) = target: T3, PKCε(h) (Homo sapiens, UniProt Q02156)
# T3 construct: gene PRKCE
# T3 sequence (Q02156 1-737): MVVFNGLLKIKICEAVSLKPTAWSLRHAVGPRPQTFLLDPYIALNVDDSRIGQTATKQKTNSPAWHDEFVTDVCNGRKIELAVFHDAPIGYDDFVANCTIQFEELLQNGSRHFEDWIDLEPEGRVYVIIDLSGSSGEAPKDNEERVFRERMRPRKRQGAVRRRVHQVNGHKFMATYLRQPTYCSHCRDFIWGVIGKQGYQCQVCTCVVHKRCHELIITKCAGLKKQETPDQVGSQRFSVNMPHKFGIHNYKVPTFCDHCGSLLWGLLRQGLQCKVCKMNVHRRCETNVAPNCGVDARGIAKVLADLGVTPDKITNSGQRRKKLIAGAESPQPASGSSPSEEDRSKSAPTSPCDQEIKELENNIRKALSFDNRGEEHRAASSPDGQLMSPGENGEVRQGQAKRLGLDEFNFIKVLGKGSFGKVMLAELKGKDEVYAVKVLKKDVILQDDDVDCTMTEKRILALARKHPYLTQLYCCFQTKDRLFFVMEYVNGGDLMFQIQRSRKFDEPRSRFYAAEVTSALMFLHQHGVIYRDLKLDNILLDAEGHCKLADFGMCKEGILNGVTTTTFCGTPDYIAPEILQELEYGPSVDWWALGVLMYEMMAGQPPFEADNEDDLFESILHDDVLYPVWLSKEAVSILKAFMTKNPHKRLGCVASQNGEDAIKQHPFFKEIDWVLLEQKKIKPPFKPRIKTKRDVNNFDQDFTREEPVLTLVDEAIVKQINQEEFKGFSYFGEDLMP
# Outline: as §1
# [1] = read-out: Residual activity (%) Spautin-1 5aa
# [2] = read-out: Residual activity (%) 5as
# [3] = read-out: Residual activity (%) 5at
# [4] = read-out: Residual activity (%) 5ay
structure (smiles),measurement,setting,value
"Fc1ccc(CNc2ncnc3ccc(F)cc23)cc1 [5aa, 6-Fluoro-N-(4-fluorobenzyl)-4-Quinazolinamine]",remaining activity at 10 µM,Abl (Q252H) (h); [1],104%
same,remaining activity at 10 µM,CDK2/cyclinE(h); [1],69%
same,remaining activity at 10 µM,TBK1(h); [1],126%
same,remaining activity at 10 µM,PKCε(h); [1],95%
"Fc1ccc(CCNc2ncnc3ccc(F)cc23)cc1 [5as, 6-Fluoro-N-[2-(4-Fluorophenyl)Ethyl]-4-Quinazolinamine]",remaining activity at 10 µM,Abl (Q252H) (h); [2],104%
same,remaining activity at 10 µM,CDK2/cyclinE(h); [2],103%
same,remaining activity at 10 µM,TBK1(h); [2],108%
same,remaining activity at 10 µM,PKCε(h); [2],93%
"Fc1ccc2ncnc(NCCc3ccc(Cl)cc3)c2c1 [5at, N-[2-(4-Chlorophenyl)Ethyl]-6-Fluoro-4-Quinazolinamine]",remaining activity at 10 µM,Abl (Q252H) (h); [3],88%
same,remaining activity at 10 µM,CDK2/cyclinE(h); [3],54%
same,remaining activity at 10 µM,TBK1(h); [3],108%
same,remaining activity at 10 µM,PKCε(h); [3],86%
"COc1ccc2ncnc(Nc3cccc(F)c3)c2c1 [5ay, N-(3-Fluorophenyl)-6-Methoxy-4-Quinazolinamine]",remaining activity at 10 µM,Abl (Q252H) (h); [4],80%
same,remaining activity at 10 µM,CDK2/cyclinE(h); [4],89%
same,remaining activity at 10 µM,TBK1(h); [4],117%
same,remaining activity at 10 µM,PKCε(h); [4],93%

# — article PMC7827406, “Structure–Activity Relationship (SAR) Study of Spautin-1 to Entail the Discovery of Novel NEK4 Inhibitors” (International Journal of Molecular Sciences, 2021)
